Tests used:
[1] = tested on: cuprizone-induced mouse model of demyelination; experiment: Cuprizone-induced mouse model of demyelination / neuroprotection; format: in vivo, C57BL/6 mice; settings: 1 mg/kg; vehicle 258±49.1, p<0.001
Source text: The effect of a S1P receptor agonist on spinal cord axial demyelination or reduction in axonal breaks can be assessed by measuring concentration of neurofilament light chain (NfL) in the plasma. NfL is released to the plasma following axonal injury and degeneration. Histological examination of axons with antineurofilament H non-phosphorylated mouse antibody SMI-32 can also be used to assess axonal demyelination or breaks. NfH is phosphorylated in healthy axons and unphosphorylated in damaged axons. In addition, the effects of ozanimod on the CNS were examined in vivo using the cuprizone-induced mouse model of demyelination and in vitro in primary rodent astrocytes. Efficacy of ozanimod or compound (2-R) was examined in the cuprizone-induced mouse model of neuroprotection. C57BL/6 mice were treated with cuprizone (0.3% weight/weight orally) and rapamycin (10 mg/kg intraperitoneally daily) to demyelinate axons in the brain and concurrently treated with ozanimod (0.1, 0.3, or 1 mg/kg) or compound (2-S) (1 mg/kg) by daily oral gavage to investigate its neuroprotective activity. Neuroprotection was assessed through examination of axonal pathology in the corpus callosum using SMI-32 (antineurofilament H non-phosphorylated mouse monoclonal antibody) staining, functional assessment through kinematic gait analysis and the plasma biomarker neurofilament light chain (NfL). Further, direct activity of ozanimod was examined in resting and activated primary rodent astrocytes in vitro.

Recombinant human MAO-A = target: T1, Recombinant human MAO-A (Homo sapiens, UniProt P21397); experiment: MAO-A inhibition, conversion of kynuramine to 4-hydroxyquinoline; format: biochemical
T1 construct: purchased Sigma-Aldrich M7316; host or cells: baculovirus infected insect cells
T1 sequence (P21397 1-527): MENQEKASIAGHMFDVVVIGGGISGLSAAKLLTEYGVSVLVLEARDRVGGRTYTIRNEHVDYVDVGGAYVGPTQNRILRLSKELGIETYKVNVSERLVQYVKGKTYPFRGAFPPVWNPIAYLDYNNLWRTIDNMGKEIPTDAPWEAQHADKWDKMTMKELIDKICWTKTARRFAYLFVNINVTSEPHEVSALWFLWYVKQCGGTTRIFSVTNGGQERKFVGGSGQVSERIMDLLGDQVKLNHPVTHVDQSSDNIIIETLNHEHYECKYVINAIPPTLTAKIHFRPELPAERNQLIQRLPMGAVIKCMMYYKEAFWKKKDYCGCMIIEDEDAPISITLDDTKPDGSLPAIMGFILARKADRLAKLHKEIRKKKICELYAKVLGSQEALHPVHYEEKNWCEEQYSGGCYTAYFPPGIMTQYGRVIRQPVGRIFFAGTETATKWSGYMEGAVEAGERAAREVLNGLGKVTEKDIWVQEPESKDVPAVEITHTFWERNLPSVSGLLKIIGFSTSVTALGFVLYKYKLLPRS
Method: (§1) The effect of a S1P receptoragonist on MAO-B activity can be assessed by measuring the inhibition of conversion of substrate kynuramine to 4-hydroxyquinoline as described in Example 4.
(§2) Compound 1 and Compound 2-S were evaluated for their ability to inhibit MAO-A and MAO-B. Inhibition of the conversion of kynuramine, a substrate for MAO-A and MAO-B, to 4-hydroxyquinoline was used to assess the inhibitory potential of Compound 1 and Compound 2-S. Recombinant human MAO-A (product number M7316) and MAO-B (product number M7441) expressed in baculovirus infected insect cells were obtained from Sigma-Aldrich, Saint Louis, Mo. USA were used as a source of purified MAOs.
Recombinant MAO-A (0.01 mg/mL, final concentrations) and MAO-B (0.02 mg/mL, final concentration) were diluted to desired concentrations in 100 mM potassium phosphate buffer (pH 7.4) containing 5 mM MgCl2. The diluted protein fractions were preincubated with various concentrations of each test compound at 37° C. for 2 min. The concentrations used were 100, 33, 10, 3.3, 1.0, 0.33 μM and acetonitrile/DMSO as vehicle control for MAO-A and 1.0, 0.3, 0.1, 0.03, 0.01, 0.003 μM and acetonitrile/DMSO as vehicle control for MAO-B. The reaction was started by addition of kynuramine to the incubation mixture. The final concentration of kynuramine was 40 μM for MAO-A and 25 μM for MAO-B. The total incubation volume was 0.250 mL. […] The reaction product, 4-hydroxyquinoline was analyzed by LC-MS/MS as described below. […]
(§3) The gradient system was used to separate the analytes with a flow rate of 0.5 ml/min using mobile phase A, water containing 0.1% formic acid and mobile phase B, acetonitrile containing 0.1% formic acid. […] The analytes were monitored using multiple reaction monitoring and the ion transitions (Q1/Q3) were as follows: 4-hydroxyquinoline 146/104 (collision energy, CE was 27; declustering potential, DP, 50, and IS (acetaminophen), 152/110 (collision energy, CE was 27; declustering potential, DP, 50). All data were analyzed using AB Sciex Analyst v1.6.2 software.

Recombinant human MAO-B = target: T2, Recombinant human MAO-B (Homo sapiens, UniProt P27338); experiment: MAO-B inhibition, conversion of kynuramine to 4-hydroxyquinoline; format: biochemical
T2 construct: purchased Sigma-Aldrich M7441; host or cells: baculovirus infected insect cells
T2 sequence (P27338 1-520): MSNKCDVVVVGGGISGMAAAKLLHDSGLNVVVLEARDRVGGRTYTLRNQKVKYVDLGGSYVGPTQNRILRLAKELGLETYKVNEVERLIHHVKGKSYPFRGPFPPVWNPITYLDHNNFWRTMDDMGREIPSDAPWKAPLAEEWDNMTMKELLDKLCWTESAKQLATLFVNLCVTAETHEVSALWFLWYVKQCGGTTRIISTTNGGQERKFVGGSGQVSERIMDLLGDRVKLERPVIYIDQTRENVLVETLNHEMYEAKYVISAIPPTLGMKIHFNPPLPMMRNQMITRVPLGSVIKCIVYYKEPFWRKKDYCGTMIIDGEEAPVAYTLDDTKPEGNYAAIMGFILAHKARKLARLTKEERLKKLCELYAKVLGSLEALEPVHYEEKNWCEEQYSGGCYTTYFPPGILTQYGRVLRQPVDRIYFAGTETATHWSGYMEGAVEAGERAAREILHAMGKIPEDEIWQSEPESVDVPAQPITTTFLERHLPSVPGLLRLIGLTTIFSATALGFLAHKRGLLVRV
Method: as §1, §2
Recombinant MAO-A (0.01 mg/mL, final concentrations) and MAO-B (0.02 mg/mL, final concentration) were diluted to desired concentrations in 100 mM potassium phosphate buffer (pH 7.4) containing 5 mM MgCl2. The diluted protein fractions were preincubated with various concentrations of each test compound at 37° C. for 2 min. The concentrations used were 100, 33, 10, 3.3, 1.0, 0.33 μM and acetonitrile/DMSO as vehicle control for MAO-A and 1.0, 0.3, 0.1, 0.03, 0.01, 0.003 μM and acetonitrile/DMSO as vehicle control for MAO-B. The reaction was started by addition of kynuramine to the incubation mixture. The final concentration of kynuramine was 40 μM for MAO-A and 25 μM for MAO-B. The total incubation volume was 0.250 mL. This concentration was selected to be close to the Km values of MAO-A (Km 42 μM) and MAO-B (Km 26 μM). After 10 min of incubation, aliquots (100 μL) of the reaction mixture were taken and added to 200 μL acetonitrile containing 0.5 μM IS (acetaminophen). The reaction product, 4-hydroxyquinoline was analyzed by LC-MS/MS as described below.
MS characterization and detection of kynuramine and 4-hydroxyquinoline was performed using ABI 4000 Sciex QTrap mass spectrometer utilizing a Turbo Spray. The mass spectrometer was controlled by Analyst v1.6.2. The ESI was operated in a positive ion mode and the experimental parameters were set as follows: ion spray voltage, 2000; source temperature, 550° C.; curtain gas, 20; collision gas, medium ion source gas 1, 55; ion source gas 2, 50. […]
as §3

IC50 (Recombinant human MAO-A; kynuramine 40 μM, 10 min incubation): 1200 nM | MAO-A inhibition (in words) (Recombinant human MAO-A; tested up to 100 μM): inhibitory activity | MAO-B inhibition (in words) (Recombinant human MAO-B): inhibitory activity | IC50 (Recombinant human MAO-B; kynuramine 25 μM, 10 min incubation): 32 nM
SMILES: CC(C)Oc1ccc(-c2nc(-c3cccc4c3CC[C@@H]4N)no2)cc1C#N [Compound 2-S]
plasma biomarker NfL [1]: 127 ± 12.2 pg/mL

From patent publication US11207301B2, “Sphingosine 1 phosphate receptor agonists for neuroprotection” (RECEPTOS LLC, priority 2017, dated 2021)
